Patent US20190110476A1, “NOVEL ISOTHIAZOLAMIDES, PROCESSES FOR THEIR PREPARATION AND THEIR USE AS FUNGICIDES” (priority 2014, published 2019)
Marks after values point to notes of the source that are not given here.

assay: Measurement of LogP values by HPLC on reversed phase columns (EEC directive 79/831 Annex V.A8); type: physicochemical; details: not given
Outline: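 Following EEC directive 79/831 Annex V.A8, lipophilicity was derived from retention on reversed-phase HPLC columns. Separate values are given per diastereoisomer, and UV lambda-max (200–400 nm) was read at the peak signals.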

Row | Structure (SMILES) | LogP [a] | LogP
1 | O=C(NCC1CCCO1)c1snc(N=C(c2ccccc2)c2ccccc2)c1Cl (stereo not drawn) [II-005] | 3.83^[a] | 
2 | Nc1nsc(C(=O)NCc2ccc(Cl)cc2)c1-c1ccc(F)cc1 [I-336] |  | 2.73[a]
3 | Nc1nsc(C(=O)Nc2ccc(F)cc2F)c1Cl [I-864] |  | 2.07[a]
4 | Nc1nsc(C(=O)N(c2ccc(F)cc2F)C2CC2)c1Cl [I-958] |  | 2.39[a]
5 | Nc1nsc(C(=O)NC(Cc2ccccc2)C2CCCCC2)c1Cl (stereo not drawn) [I-1095] |  | 3.55[b]
6 | Nc1cc(C(=O)NCCC2CCCCC2)sn1 [I-853] |  | 2.23[a]
7 | CC(C)(C)C(=O)Nc1nscc1Cl [Z-A-004] | 1.55^[a] | 
8 | COc1ccc(CNc2nsc(C(=O)NCc3cccc(OC)c3F)c2Cl)cc1 [I-236] |  | 3.46[a]
9 | Nc1nsc(C(=O)NCc2ccccc2F)c1C1CC1 [I-361] |  | 1.88[a]
10 | CS(C)(=O)=Nc1nsc(C(=O)NCC2CCCCC2)c1Cl [II-049] | 2.47^[a] | 

same assay, conditions: HPLC LC-UV, acidic range, 0.1% formic acid in water and acetonitrile as eluent

Row | Structure (SMILES) | chromatographic logP
11 | Nc1nsc(C(=O)O)c1Br [E-VIII-015, 3-amino-4-bromo-1,2-thiazole-5-carboxylic acid] | -0.07

assay: not given; details: not given

Row | Structure (SMILES) | melting point [°C]
12 | Nc1nsc(C(=O)O)c1Br [E-VIII-015, 3-amino-4-bromo-1,2-thiazole-5-carboxylic acid] | 164.5
